Reference: ChEMBL document CHEMBL1201862, “PubChem BioAssay data set” (2004)
Counter-ions that a name gives are not always drawn. Blank lines part the entries; values can stand above or below the compound they belong to. Active and inactive are the calls of the source.

Experiments:
[1] = biological target: NAD-dependent protein deacylase sirtuin-5, mitochondrial (Homo sapiens, UniProt Q9NXA8); assay: sirtuin-5 deacylation blockers, concentration series – biochemical, fluorescence imaging, cherry-pick, set 5, dose response (AID 720591);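 note: desuccinylation of succinyl peptide AMC substrate read as fluorescence after trypsin release; potency of inhibitors that lower fluorescence and may act on trypsin instead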
NAD-dependent protein deacylase sirtuin-5, mitochondrial, sequence (Q9NXA8 whole entry): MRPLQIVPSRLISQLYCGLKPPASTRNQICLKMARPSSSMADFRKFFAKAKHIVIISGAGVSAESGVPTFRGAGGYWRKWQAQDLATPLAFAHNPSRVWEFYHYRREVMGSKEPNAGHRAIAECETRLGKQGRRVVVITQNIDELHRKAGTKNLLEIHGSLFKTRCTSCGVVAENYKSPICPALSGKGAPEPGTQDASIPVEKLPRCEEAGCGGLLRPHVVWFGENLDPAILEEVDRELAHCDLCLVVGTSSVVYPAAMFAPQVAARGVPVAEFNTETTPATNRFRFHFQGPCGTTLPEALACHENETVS

[2] = biological target: G-protein coupled receptor 183 (Homo sapiens, UniProt P32249); assay: SAR confirmation of small molecule antagonists of the EBI2 receptor via a luminescent beta-arrestin assa.; assay type: functional
G-protein coupled receptor 183, sequence (P32249 whole entry): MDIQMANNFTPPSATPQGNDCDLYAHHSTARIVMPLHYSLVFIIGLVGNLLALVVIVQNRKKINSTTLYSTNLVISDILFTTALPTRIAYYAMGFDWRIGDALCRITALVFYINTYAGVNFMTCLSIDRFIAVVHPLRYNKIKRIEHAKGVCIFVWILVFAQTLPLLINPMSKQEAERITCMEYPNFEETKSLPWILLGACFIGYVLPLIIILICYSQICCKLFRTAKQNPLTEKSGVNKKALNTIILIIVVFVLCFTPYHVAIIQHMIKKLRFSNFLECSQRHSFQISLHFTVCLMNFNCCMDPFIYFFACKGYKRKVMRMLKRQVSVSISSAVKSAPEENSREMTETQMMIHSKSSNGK

[3] = IC50 of insulin release inhibition, rat insulinoma INS-1E line, 5 mM glucose, cell-based (AID 1117331); assay type: functional
[4] = Potency on glucagon-like peptide 1 release, dose-response in NCI-H716 cell line, half maximal inhibitory concentration (AID 1117344); assay type: functional, cell-based
[5] = glucagon-like peptide-1 release potency in STC-1, concentration-response, half-maximal inhibitory concentration in the STC-1 line (AID 1117345); assay type: functional, cell-based
Protein Tat = Protein Tat (Human immunodeficiency virus type 1 group M subtype B (isolate HXB2)(HIV-1), UniProt P04608); assay type: functional;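 note: tat binding to TAR RNA read out by fluorescence polarization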
Protein Tat, sequence (P04608 whole entry): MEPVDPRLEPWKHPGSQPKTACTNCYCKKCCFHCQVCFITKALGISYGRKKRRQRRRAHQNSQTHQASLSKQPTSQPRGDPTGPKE

Large T antigen = Large T antigen (Simian virus 40, UniProt P03070); assay type: functional, Betapolyomavirus macacae;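 note: Confirmatory-stage PubChem screen for compounds that inhibit SV40 T antigen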
Large T antigen, sequence (P03070 whole entry): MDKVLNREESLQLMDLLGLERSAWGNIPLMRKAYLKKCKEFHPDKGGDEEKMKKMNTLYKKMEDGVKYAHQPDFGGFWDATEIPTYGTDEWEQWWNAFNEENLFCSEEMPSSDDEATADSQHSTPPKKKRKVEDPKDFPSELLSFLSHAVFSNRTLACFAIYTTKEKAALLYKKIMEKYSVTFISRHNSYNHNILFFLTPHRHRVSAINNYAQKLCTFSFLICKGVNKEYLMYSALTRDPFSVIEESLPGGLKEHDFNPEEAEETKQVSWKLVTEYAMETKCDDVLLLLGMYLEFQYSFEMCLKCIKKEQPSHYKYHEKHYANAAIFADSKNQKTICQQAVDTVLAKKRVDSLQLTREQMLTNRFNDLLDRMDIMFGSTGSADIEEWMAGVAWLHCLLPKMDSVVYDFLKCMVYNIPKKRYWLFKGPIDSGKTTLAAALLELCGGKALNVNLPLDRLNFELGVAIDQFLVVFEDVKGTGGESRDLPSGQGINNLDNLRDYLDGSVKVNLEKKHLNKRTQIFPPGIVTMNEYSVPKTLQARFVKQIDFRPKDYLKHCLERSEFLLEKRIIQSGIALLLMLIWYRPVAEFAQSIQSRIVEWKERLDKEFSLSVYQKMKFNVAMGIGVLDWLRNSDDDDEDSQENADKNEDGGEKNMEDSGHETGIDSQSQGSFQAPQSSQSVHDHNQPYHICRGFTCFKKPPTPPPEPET

Vasopressin V1b receptor = Vasopressin V1b receptor (Homo sapiens, UniProt P47901); assay: Late-stage results from the probe development effort to identify antagonists of arginine vasopressin receptor 1a (AVPR1a): fluorescence-based cell-based dose response AVPR1b inhibition counterscreen assay.; assay type: functional
Vasopressin V1b receptor, sequence (P47901 whole entry): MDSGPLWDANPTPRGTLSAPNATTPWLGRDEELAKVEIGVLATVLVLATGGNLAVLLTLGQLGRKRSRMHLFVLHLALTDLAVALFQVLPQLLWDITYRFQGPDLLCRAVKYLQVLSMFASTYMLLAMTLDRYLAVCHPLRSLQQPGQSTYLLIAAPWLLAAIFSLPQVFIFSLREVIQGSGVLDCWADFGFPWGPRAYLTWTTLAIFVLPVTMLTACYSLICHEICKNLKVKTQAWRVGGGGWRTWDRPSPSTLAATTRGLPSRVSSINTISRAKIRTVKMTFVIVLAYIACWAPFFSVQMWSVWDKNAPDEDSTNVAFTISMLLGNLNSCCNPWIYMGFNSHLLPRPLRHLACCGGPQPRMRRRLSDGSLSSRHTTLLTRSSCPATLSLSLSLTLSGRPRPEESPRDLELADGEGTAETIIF

[6] = Late-stage results from the probe development effort to identify antagonists of arginine vasopressin receptor 1a (AVPR1a): fluorescence-based cell-based dose response OXTR inhibition counterscreen assay.; assay type: functional
Vasopressin V2 receptor = Vasopressin V2 receptor (Homo sapiens, UniProt P30518); assay: Late-stage results from the probe development effort to identify antagonists of arginine vasopressin receptor 1a (AVPR1a): fluorescence-based cell-based dose response AVPR2 inhibition counterscreen assay.; assay type: functional
Vasopressin V2 receptor, sequence (P30518 whole entry): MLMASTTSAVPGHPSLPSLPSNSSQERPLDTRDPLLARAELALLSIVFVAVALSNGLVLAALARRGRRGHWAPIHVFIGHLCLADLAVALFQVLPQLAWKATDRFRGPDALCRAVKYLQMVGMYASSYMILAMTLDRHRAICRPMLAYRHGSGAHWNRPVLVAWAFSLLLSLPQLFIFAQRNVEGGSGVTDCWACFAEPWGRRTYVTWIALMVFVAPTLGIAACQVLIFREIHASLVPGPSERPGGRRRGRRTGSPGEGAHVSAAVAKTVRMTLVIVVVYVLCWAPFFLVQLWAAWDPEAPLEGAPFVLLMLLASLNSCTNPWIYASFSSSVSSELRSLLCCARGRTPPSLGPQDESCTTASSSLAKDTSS

[7] = Late-stage results from the probe development effort to identify antagonists of arginine vasopressin receptor 1a (AVPR1a): fluorescence-based cell-based dose response AVPR1a inhibition assay.; assay type: functional

AC50 [1]: > 30 µM (inactive)
Structure (SMILES): COc1ccc(OCC(=O)Nc2ccc(C(=O)Nc3ccccc3C(=O)O)cc2)cc1

IC50 [2]: 0.00223 µM (active)
Structure (SMILES): CCC(C)N1CCN(C(=O)/C=C/c2ccc(Br)cc2)CC1 (stereo not drawn)

Structure (SMILES): Cc1cc(O)c2c(O)c3c(O)cccc3cc2c1
IC50 [3]: > 33.3 µM (inactive)
IC50 [4]: > 20 µM (inactive)
IC50 [5]: 11.3 µM (inactive)

AC50 [1]: > 30 µM (inactive)
Structure (SMILES): CNCCC(Oc1ccccc1OC)c1ccccc1 (stereo not drawn) [NISOXETINE HYDROCHLORIDE]

Structure (SMILES): CCN(CC)CCOC(=O)C(C)(c1ccccc1)c1ccccc1 [APROFENE]
IC50 [3]: > 11.1 µM (inactive)

IC50 (Protein Tat): > 100 µM (active)
IC50 (Large T antigen): 8.31 µM (active)
Structure (SMILES): NC(=O)c1ccc(N2CCN(c3ccc(O)cc3)CC2)c([N+](=O)[O-])c1

Structure (SMILES): CCN(C(=O)N1CCN(c2ccccc2C)CC1)c1ccc(OC)cc1
IC50 (Vasopressin V1b receptor): 8.81 µM (active)
IC50 [6]: 0.5 µM (active)
IC50 (Vasopressin V2 receptor): 6 µM (active)
IC50 [7]: 0.062 µM (active)
